Consider four molecules from ChEMBL document CHEMBL1201862, “PubChem BioAssay data set” (2004).

Molecules are shown by their SMILES.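 These data come from cells grown in 96-well plates and exposed to compound for 48 hours at five concentrations. GI50 is the concentration that inhibits growth by half.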 Active and inactive are the calls of the source. Rule as the data show it: active = GI50 up to about 1.1 µM and inactive = higher. Peptide text beside a SMILES is read from it. * marks the point of attachment. Boc = CC(C)(C)OC(=O)*

Test systems include SN12C; SF-539; HCC 2998; HCT-15; SW-620; NCI-H226; Hs-578T; SF-268; A549; MCF7; CCRF-CEM; MOLT-4; T47D; EKVX; RXF 393; BT-549; NCI-H460; MDA-MB-231.
Experiment in all cases: NCI anticancer screen, dose series, 48 h

On to `CC(NC(=O)OC(C)(C)C)C(=O)NC(Cc1ccccc1)C(=O)NCC(=O)O` (stereo not drawn) (Boc-Ala-Phe-Gly-OH; configuration not given here), for which the GI50 in the assay with SN12C was > 100 µM (inactive); with SF-539, > 100 µM (inactive); in the assay on HCC 2998, > 100 µM (inactive); in the assay on HCT-15 it was above 100 µM; in the assay on SW-620, > 100 µM (inactive); in the assay with NCI-H226, > 100 µM (inactive). The GI50 in the assay on Hs-578T, in the assay on SF-268, in the assay with A549, with MCF7, in the assay with CCRF-CEM and in the assay with MOLT-4 was > 100 µM (inactive) each time. The GI50 with T47D, in the assay with EKVX, in the assay with RXF 393, in the assay with BT-549, with NCI-H460 and with MDA-MB-231 was > 100 µM (inactive) each time.
On to `COc1cc(OCc2nc3ccccc3n3cccc23)cc(OC)c1OC`, for which the GI50 in the assay with SN12C was 47 µM (inactive); in the assay with SF-539, 24.8 µM (inactive); in the assay on HCC 2998, 43.8 µM (inactive); in the assay on HCT-15, 8.09 µM; with SW-620, 8.34 µM (inactive); in the assay with NCI-H226, 9.73 µM (inactive). Moreover, the GI50 with Hs-578T was 52.6 µM (inactive); with SF-268, 41.9 µM (inactive); in the assay on A549, 20.3 µM (inactive); with MCF7, 3.61 µM (inactive); in the assay with CCRF-CEM, 8.49 µM (inactive); with MOLT-4 it was 2.37 µM (inactive). The GI50 was 3.78 µM (inactive) with T47D; 14.8 µM (inactive) in the assay on EKVX; > 100 µM (inactive) in the assay on RXF 393; 19.7 µM (inactive) in the assay with BT-549; 20.5 µM (inactive) with NCI-H460; 40.6 µM (inactive) with MDA-MB-231.
Regarding `C#CCOC(=O)C(N)CC(N)=O` (configuration not stated), the GI50 in the assay on SN12C is > 100 µM (inactive); in the assay on SF-539 it was > 100 µM (inactive); in the assay with HCC 2998, > 100 µM (inactive); in the assay with HCT-15, above 100 µM; in the assay with SW-620, > 100 µM (inactive); in the assay with NCI-H226, > 100 µM (inactive). The GI50 with Hs-578T, in the assay with SF-268, with A549, in the assay on MCF7, in the assay with CCRF-CEM and in the assay with MOLT-4 was > 100 µM (inactive) in each case. In addition, the GI50 in the assay with T47D is > 69 µM (inactive); with EKVX, > 100 µM (inactive); in the assay on RXF 393, > 100 µM (inactive); in the assay with BT-549, > 100 µM (inactive); in the assay on NCI-H460, > 100 µM (inactive); in the assay on MDA-MB-231 it was > 100 µM (inactive).
On to `Cc1ccc(Nc2c(C#N)[n+]([O-])c3cc(Cl)ccc3[n+]2[O-])cc1`, for which the GI50 in the assay on SN12C is > 33.2 µM (inactive); in the assay on SF-539, 26.6 µM (inactive); in the assay on HCC 2998, 21.8 µM (inactive); in the assay with HCT-15, 5.15 µM; with SW-620, 37.5 µM (inactive); in the assay on NCI-H226 it was 28.2 µM (inactive). For the same molecule, the GI50 in the assay on Hs-578T is > 100 µM (inactive); in the assay with SF-268 it was 28.4 µM (inactive); in the assay with A549, 23.8 µM (inactive); with MCF7, 15.3 µM (inactive); in the assay on CCRF-CEM, 3.23 µM (inactive); in the assay on MOLT-4 it was 4.8 µM (inactive). Besides, the GI50 with T47D is > 100 µM (inactive); in the assay with EKVX, > 81.3 µM (inactive); with RXF 393, > 22.1 µM (inactive); with BT-549, 9.46 µM (inactive); in the assay with NCI-H460 it was 9.31 µM (inactive); in the assay on MDA-MB-231, > 100 µM (inactive).
